Results from US10618918B2, “Substituted boronic acids as antimicrobials” (priority 2015, dated 2020).
Where two headings read alike, the source gives them in different places.

Experiments:
KP1004 KPC-2 [1] = experiment: Biapenem potentiation (MPC@1), strain KP1004 KPC-2; type: cell-based; details: minimum BLI concentration inhibiting growth with biapenem 1 μg/mL; tested up to 40 μg/mL
Protocol: (§1) Biapenem was present in the test medium at 1 μg/mL. […] Table 3 summarizes the BLI potency of biapenem potentiation (MPC@1) for two strains overexpressing class A (KPC) and class D (OXA-48) carbapenemases. Biapenem MIC for each strain is also shown.

KP1086 OXA-48 = experiment: Biapenem potentiation (MPC@1), strain KP1086 OXA-48; type: cell-based; details: minimum BLI concentration inhibiting growth with biapenem 1 μg/mL; tested up to 40 μg/mL
Protocol: as §1

AB1053 OXA-72 = experiment: Meropenem potentiation (MPC@8), strain AB1053 OXA-72; type: cell-based, Acinetobacter baumannii; details: minimum BLI concentration inhibiting growth with meropenem 8 μg/mL; tested up to 20 μg/mL
AB1054 OXA-23 = experiment: Meropenem potentiation (MPC@8), strain AB1054 OXA-23; type: cell-based, Acinetobacter baumannii; details: minimum BLI concentration inhibiting growth with meropenem 8 μg/mL; tested up to 20 μg/mL
[2] = biological target: T1, purified class A, C and D enzymes (β-lactamases) (Acinetobacter baumannii, UniProt Q9L4P2); experiment: biochemical; type: biochemical; details: purified OXA-23; nitrocefin (NCF) as reporter substrate
T1 construct: rows headed: Ki (OXA-23, NCF), uM; other: purified OXA-23; nitrocefin (NCF) as reporter substrate

[3] = biological target: purified class A, C and D enzymes (β-lactamases) (Enterobacter cloacae, UniProt P05364); experiment: biochemical; type: biochemical
[4] = biological target: purified class A, C and D enzymes (β-lactamases) (Escherichia coli, UniProt Q9L5C7); experiment: biochemical; type: biochemical; details: purified CTX-M-14; nitrocefin (NCF) as reporter substrate
[5] = biological target: purified class A, C and D enzymes (β-lactamases) (Klebsiella pneumoniae, UniProt Q6XEC0); experiment: biochemical; type: biochemical; details: purified OXA-48; nitrocefin (NCF) as reporter substrate
[6] = biological target: purified class A, C and D enzymes (β-lactamases) (Klebsiella pneumoniae, UniProt Q9F663); experiment: biochemical; type: biochemical; details: purified KPC-2; nitrocefin (NCF) as reporter substrate
[7] = biological target: T2, purified class A, C and D enzymes (β-lactamases) (Pseudomonas aeruginosa, UniProt P24735); experiment: biochemical; type: biochemical
T2 construct: rows headed: Ki (Pa-AmpC, NCF), uM; other: purified Pa-AmpC; nitrocefin (NCF) as reporter substrate

ECL1002 = experiment: Aztreonam potentiation (MPC@4), strain ECL1002; details: minimum BLI concentration inhibiting growth with aztreonam 4 μg/mL; tested up to 40 μg/mL
ec308 SHV-5 = experiment: Aztreonam potentiation (MPC@4), strain ec308 SHV-5; details: minimum BLI concentration inhibiting growth with aztreonam 4 μg/mL; tested up to 40 μg/mL
ec302 TEM-10 = experiment: Aztreonam potentiation (MPC@4), strain ec302 TEM-10; details: minimum BLI concentration inhibiting growth with aztreonam 4 μg/mL; tested up to 40 μg/mL
KP1004 KPC-2 [8] = experiment: Aztreonam potentiation (MPC@4), strain KP1004 KPC-2; details: minimum BLI concentration inhibiting growth with aztreonam 4 μg/mL; tested up to 40 μg/mL
EC1010 CMY-6 = experiment: Aztreonam potentiation (MPC@4), strain EC1010 CMY-6; details: minimum BLI concentration inhibiting growth with aztreonam 4 μg/mL; tested up to 40 μg/mL
KP1010 SHV-12 = experiment: Aztreonam potentiation (MPC@4), strain KP1010 SHV-12; details: minimum BLI concentration inhibiting growth with aztreonam 4 μg/mL; tested up to 40 μg/mL
KP1009 CTX-M-15 = experiment: Aztreonam potentiation (MPC@4), strain KP1009 CTX-M-15; details: minimum BLI concentration inhibiting growth with aztreonam 4 μg/mL; tested up to 40 μg/mL
KP1005 CTX-M-14 = experiment: Tigemonam potentiation (MPC@4), strain KP1005 CTX-M-14; details: minimum BLI concentration inhibiting growth with tigemonam 4 μg/mL; tested up to 40 μg/mL
[9] = purified P99, nitrocefin (NCF) as reporter substrate
[10] = purified Pa-AmpC, nitrocefin (NCF) as reporter substrate, read-out: Ki (Pa-AmpC, NCF)

T1 sequence (Q9L4P2 whole entry): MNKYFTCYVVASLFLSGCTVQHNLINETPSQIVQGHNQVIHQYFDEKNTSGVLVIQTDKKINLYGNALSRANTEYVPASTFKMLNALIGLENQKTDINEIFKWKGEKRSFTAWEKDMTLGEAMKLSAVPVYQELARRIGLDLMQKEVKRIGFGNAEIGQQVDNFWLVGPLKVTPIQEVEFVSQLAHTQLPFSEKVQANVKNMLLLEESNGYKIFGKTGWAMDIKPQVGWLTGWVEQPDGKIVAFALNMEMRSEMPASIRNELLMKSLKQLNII
Sequence of purified class A, C and D enzymes (β-lactamases) (Enterobacter cloacae, UniProt P05364) (P05364 21-381): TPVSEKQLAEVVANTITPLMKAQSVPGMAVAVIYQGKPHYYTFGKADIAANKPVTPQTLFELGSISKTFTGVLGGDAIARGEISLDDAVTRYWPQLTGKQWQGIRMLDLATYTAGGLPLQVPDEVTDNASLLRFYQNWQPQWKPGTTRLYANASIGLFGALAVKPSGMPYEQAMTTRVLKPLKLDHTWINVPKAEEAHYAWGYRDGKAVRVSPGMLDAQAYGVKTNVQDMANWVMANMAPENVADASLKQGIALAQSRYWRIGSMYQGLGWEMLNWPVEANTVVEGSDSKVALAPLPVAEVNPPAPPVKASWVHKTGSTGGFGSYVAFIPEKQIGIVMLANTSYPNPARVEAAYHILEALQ
T2 sequence (P24735 whole entry): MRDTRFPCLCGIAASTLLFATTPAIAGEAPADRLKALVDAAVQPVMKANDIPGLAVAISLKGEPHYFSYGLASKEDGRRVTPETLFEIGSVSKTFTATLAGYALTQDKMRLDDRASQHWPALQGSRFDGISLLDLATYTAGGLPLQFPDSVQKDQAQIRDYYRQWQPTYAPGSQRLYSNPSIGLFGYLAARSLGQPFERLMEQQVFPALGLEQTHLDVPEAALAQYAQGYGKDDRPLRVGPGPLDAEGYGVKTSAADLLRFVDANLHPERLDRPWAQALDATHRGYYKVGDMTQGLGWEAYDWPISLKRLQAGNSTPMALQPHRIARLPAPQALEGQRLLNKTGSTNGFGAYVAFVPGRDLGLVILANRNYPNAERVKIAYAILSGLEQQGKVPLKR
Sequence of purified class A, C and D enzymes (β-lactamases) (Escherichia coli, UniProt Q9L5C7) (Q9L5C7 entry or part of it): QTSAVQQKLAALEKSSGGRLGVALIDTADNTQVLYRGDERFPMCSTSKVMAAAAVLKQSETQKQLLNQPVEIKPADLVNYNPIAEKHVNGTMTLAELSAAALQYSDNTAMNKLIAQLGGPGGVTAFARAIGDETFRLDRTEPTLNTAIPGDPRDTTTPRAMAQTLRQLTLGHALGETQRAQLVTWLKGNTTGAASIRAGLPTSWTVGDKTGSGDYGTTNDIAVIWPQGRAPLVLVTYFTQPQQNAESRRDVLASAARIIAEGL

Compound | BPM MPC1 KP1004 KPC-2 (KP1004 KPC-2 [1]) | BPM MPC1 OXA-48 KP1086 (KP1086 OXA-48) | MPM MPC8 AB1053 OXA-72 (AB1053 OXA-72) | MPM MPC8 AB1054 OXA-23 (AB1054 OXA-23) | Ki [2] | Ki (P99, NCF), uM [3] | Ki (CTX-M-14, NCF), uM [4] | Ki (OXA-48, NCF), uM [5] | Ki (KPC-2, NCF), uM [6] | Ki [7] | AZT MPC4 ECL1002 (ECL1002) | AZT MPC4 SHV-5 ec308 (ec308 SHV-5) | AZT MPC4 TEM-10 ec302 (ec302 TEM-10) | AZT MPC4 KPC-2 KP1004 (KP1004 KPC-2 [8]) | AZT MPC4 CMY-6 EC1010 (EC1010 CMY-6) | AZT MPC4 SHV-12 KP1010 (KP1010 SHV-12) | AZT MPC4 CTX-M-15 KP1009 (KP1009 CTX-M-15) | TIG MPC4 CTX-M-14 KP1005 (KP1005 CTX-M-14) | Ki (P99, NCF), uM [3, 9] | Ki [7, 10]
O=C([O-])c1ccc2c(c1C(=O)[O-])O[B-](O)(O)CC2.[Na+].[Na+].[Na+] [Compound 53, Trisodium; 4,4-dihydroxy-5-oxa-4-boranuidabicyclo[4.4.0]deca-1(6),7,9-triene-7,8-dicarboxylate] | X (X = MPC@1 ≤ 5 μg/mL) | X (X = MPC@1 ≤ 5 μg/mL) | X (X = MPC@1 ≤ 5 μg/mL) | X (X = MPC@1 ≤ 5 μg/mL) | < 0.1 µM | X (key: X = Ki ≤ 0.1 μM; Y = 0.1 μM < Ki ≤ 1 μM; Z = Ki > 1 μM) | X (X = Ki ≤ 0.1 μM) | X (X = Ki ≤ 0.1 μM) | X (X = Ki ≤ 0.1 μM) | < 0.1 µM | X (X = MPC@4 ≤ 5 μg/mL) | Y (Y = 5 μg/mL < MPC@4 ≤ 20 μg/mL) | Y (Y = 5 μg/mL < MPC@4 ≤ 20 μg/mL) | X (X = MPC@4 ≤ 5 μg/mL) | X (X = MPC@4 ≤ 5 μg/mL) | X (X = MPC@4 ≤ 5 μg/mL) | Y (Y = 5 μg/mL < MPC@4 ≤ 20 μg/mL) | Z (Z = MPC@4 > 20 μg/mL) |  | 
O=C(O)c1c(F)c(F)cc2c1OB(O)CC2 [Compound 35, 6,7-Difluoro-2-hydroxy-3,4-dihydro-1,2-benzoxaborinine-8-carboxylic acid] | X (X = MPC@1 ≤ 5 μg/mL) | X (X = MPC@1 ≤ 5 μg/mL) | X (X = MPC@1 ≤ 5 μg/mL) | X (X = MPC@1 ≤ 5 μg/mL) | < 0.1 µM |  | X (X = Ki ≤ 0.1 μM) | X (X = Ki ≤ 0.1 μM) | X (X = Ki ≤ 0.1 μM) |  | X (X = MPC@4 ≤ 5 μg/mL) | X (X = MPC@4 ≤ 5 μg/mL) | X (X = MPC@4 ≤ 5 μg/mL) | X (X = MPC@4 ≤ 5 μg/mL) | X (X = MPC@4 ≤ 5 μg/mL) | X (X = MPC@4 ≤ 5 μg/mL) | X (X = MPC@4 ≤ 5 μg/mL) | Y (Y = 5 μg/mL < MPC@4 ≤ 20 μg/mL) | X (X = Ki ≤ 0.1 μM) | < 0.1 µM
COc1ccc2c(c1P(=O)(O)O)OB(O)CC2 [Compound 33, (2-Hydroxy-7-methoxy-3,4-dihydro-1,2-benzoxaborinin-8-yl)phosphonic acid] | X (X = MPC@1 ≤ 5 μg/mL) | X (X = MPC@1 ≤ 5 μg/mL) | Y (Y = 5 μg/mL < MPC@1 ≤ 20 μg/mL) | Y (Y = 5 μg/mL < MPC@1 ≤ 20 μg/mL) | < 0.1 µM |  | X (X = Ki ≤ 0.1 μM) | X (X = Ki ≤ 0.1 μM) | Z (Z = Ki > 1 μM) |  | Z (Z = MPC@4 > 20 μg/mL) | Z (Z = MPC@4 > 20 μg/mL) | Z (Z = MPC@4 > 20 μg/mL) | Z (Z = MPC@4 > 20 μg/mL) | Y (Y = 5 μg/mL < MPC@4 ≤ 20 μg/mL) | Z (Z = MPC@4 > 20 μg/mL) | Z (Z = MPC@4 > 20 μg/mL) | Z (Z = MPC@4 > 20 μg/mL) | Y (Y = 0.1 μM < Ki ≤ 1 μM) | > 1 µM
O=C(O)c1c(-c2c[nH]nn2)ccc2c1O[B-](O)(O)CC2 [Compound 16, Disodium; 4,4-dihydroxy-8-(1H-triazol-5-yl)-5-oxa-4-boranuidabicyclo[4.4.0]deca-1(6),7,9-triene-7-carboxylate] | X (X = MPC@1 ≤ 5 μg/mL) | Y (Y = 5 μg/mL < MPC@1 ≤ 20 μg/mL) | X (X = MPC@1 ≤ 5 μg/mL) | Y (Y = 5 μg/mL < MPC@1 ≤ 20 μg/mL) | < 0.1 µM | X (key: X = Ki ≤ 0.1 μM; Y = 0.1 μM < Ki ≤ 1 μM; Z = Ki > 1 μM) | X (X = Ki ≤ 0.1 μM) | X (X = Ki ≤ 0.1 μM) | X (X = Ki ≤ 0.1 μM) | < 0.1 µM | X (X = MPC@4 ≤ 5 μg/mL) | Y (Y = 5 μg/mL < MPC@4 ≤ 20 μg/mL) | X (X = MPC@4 ≤ 5 μg/mL) | X (X = MPC@4 ≤ 5 μg/mL) | X (X = MPC@4 ≤ 5 μg/mL) | X (X = MPC@4 ≤ 5 μg/mL) | X (X = MPC@4 ≤ 5 μg/mL) | Y (Y = 5 μg/mL < MPC@4 ≤ 20 μg/mL) |  | 
COc1c(F)cc2c(c1C(=O)O)OB(O)CC2 [Compound 34, 6-Fluoro-2-hydroxy-7-methoxy-3,4-dihydro-1,2-benzoxaborinine-8-carboxylic acid] | X (X = MPC@1 ≤ 5 μg/mL) | X (X = MPC@1 ≤ 5 μg/mL) | X (X = MPC@1 ≤ 5 μg/mL) | X (X = MPC@1 ≤ 5 μg/mL) | < 0.1 µM |  | X (X = Ki ≤ 0.1 μM) | X (X = Ki ≤ 0.1 μM) | X (X = Ki ≤ 0.1 μM) |  | X (X = MPC@4 ≤ 5 μg/mL) | X (X = MPC@4 ≤ 5 μg/mL) | X (X = MPC@4 ≤ 5 μg/mL) | X (X = MPC@4 ≤ 5 μg/mL) | X (X = MPC@4 ≤ 5 μg/mL) | X (X = MPC@4 ≤ 5 μg/mL) | X (X = MPC@4 ≤ 5 μg/mL) | Z (Z = MPC@4 > 20 μg/mL) | X (X = Ki ≤ 0.1 μM) | < 0.1 µM
CON=Cc1ccc2c(c1C(=O)[O-])O[B-](O)(O)CC2.[Na+].[Na+] [Compound 55, Disodium; 4,4-dihydroxy-8-(methoxyiminomethyl)-5-oxa-4-boranuidabicyclo[4.4.0]deca-1(6),7,9-triene-7-carboxylate] | X (X = MPC@1 ≤ 5 μg/mL) | X (X = MPC@1 ≤ 5 μg/mL) | Z (Z = MPC@1 > 20 μg/mL) | Z (Z = MPC@1 > 20 μg/mL) | < 0.1 µM | X (key: X = Ki ≤ 0.1 μM; Y = 0.1 μM < Ki ≤ 1 μM; Z = Ki > 1 μM) | X (X = Ki ≤ 0.1 μM) | X (X = Ki ≤ 0.1 μM) | X (X = Ki ≤ 0.1 μM) | < 0.1 µM | X (X = MPC@4 ≤ 5 μg/mL) | X (X = MPC@4 ≤ 5 μg/mL) | X (X = MPC@4 ≤ 5 μg/mL) | X (X = MPC@4 ≤ 5 μg/mL) | X (X = MPC@4 ≤ 5 μg/mL) | X (X = MPC@4 ≤ 5 μg/mL) | X (X = MPC@4 ≤ 5 μg/mL) | Z (Z = MPC@4 > 20 μg/mL) |  | 
